The results in this text go back to patent US12576047B2, “Telomerase activating compounds for use in fertility and related applications” (Neuromagen Pharma Ltd, priority 2017, dated 2026).

The test system of one assay is FSH. Kind of assay: FSH expression by RT-PCR in pituitary gland cells. The assay is classed as cell-based, mouse. Particulars: 50 nM. As to the method: (§1) FIGS. 29A, 29B, 29C and 29D: The embodied compounds affect the expression of gonadotropin hormones in pituitary gland cells. Cells (L T2) derived from the mouse pituitary gland were assessed for their secretion of LH and FSH at 6 (FIGS. 29A and 29B) and 12 hours (FIGS. 29C and 29D) following treatment with the indicated embodied compounds (50 nM). FSH and LH expression was determined by RT-PCR, and quantified from 5 different experiments, as assessed for significance, using the t test, one way ANOVA.

In a further assay the test system is mouse ovary. Kind of assay: Hematoxylin-eosin histology of mouse ovary. Type of assay: in vivo. Particulars: for ovary histology: 6 mg/Kg single dose at Di-estrus stage; for ovary histology / ovary histology (follicles, granulosa cells): 12 hours; for ovary histology (follicles, granulosa cells): 6 mg/Kg single dose at met-estrus stage; for ovary histology (corpus luteum): 6 mg/Kg single dose at pro-estrus and estrus stages, 12 hrs. An excerpt:
The ovaries were weighted; one was taken for protein extraction for measuring telomerase activity by TRAP assay, and the other one for the histological examination using hematoxylin-eosin staining of the ovary and its follicles.
The mice ovaries were removed and fixed with 4% paraformaldehyde overnight, dehydrated in increasing ethanol concentrations to xylene, and embedded in paraffin. A rotary microtome was used to produce 5 μm sections, which were mounted on Superfrost plus slides. The sections were dried and heated at 37° C. overnight and stored in dry place. Paraffin-embedded sections were deparaffinized in xylene and rehydrated in decreasing concentrations of ethanol. Then the sections stained with hematoxylin-eosin or subjected to immunochemical and Immunofluorescent assays [Liani-Leibson, K., I. Har-Vardi, and E. Priel, Inhibition of topoisomerase I by anti-cancer drug altered the endometrial cyclicity and receptivity. Curr Mol Med, 2014. 14(1): p. 141-50].

A further assay deals with LH. Kind of assay: LH expression by RT-PCR in pituitary gland cells. Type of assay: cell-based, mouse. Particulars: 50 nM, vs untreated. The procedure: as §1
A further assay concerns female ICR mice. Kind of assay: Estrous cycle stage by vaginal smears. The assay is classed as in vivo, mouse. As to the method: Female ICR mice at least 3 months old were administered embodied compounds of this invention (Compound 79 and Compound 68) (6 mg/Kg) or DMSO alone (0.5%) by subcutaneous administration. Vaginal smears were taken at baseline and at 12 hours following the administration to determine estrous cycle stage and mice were then sacrificed.

Setting [1] is: injected at the diestrus or metestrus stages.
Where [2] appears, read: single dose injected in the proestrus or estrus stages.

For the compound `CC(c1cc(Br)c(O)c(Br)c1)(c1cc(Br)c(O)c(Br)c1)c1cc(Br)c(O)c(Br)c1` [Compound 68], the FSH expression entry with FSH (6 hours, vs untreated) is recorded as “decreased FSH expression relative to untreated samples”. In addition, in the assay with mouse ovary, the ovary histology entry was “a plurality of corpus luteum (CL)”; the “ovary histology (follicles, granulosa cells)” value is “more developed follicles (white arrow) and plurality of layers of granulosa cells (GC) around the oocytes”; the “ovary histology (corpus luteum)” value was “more corpus luteum (CL) than in the control group”. Further, the LH expression entry in the assay with LH (12 hours) is “increased LH production above untreated levels”. Besides, the “estrous cycle stage 12 hrs post treatment” value in the assay with female ICR mice (setting [1]) is on record as “No changes in the estrous cycle stage”. The “estrous cycle stage 12 hrs post treatment” value in the assay on female ICR mice (setting [2]) is listed as “in the metestrus stage”.
With `CCOCc1cc(C(C)(c2cc(COCC)c(O)c(COCC)c2)c2cc(COCC)c(O)c(COCC)c2)cc(COCC)c1O` [Compound 79], the FSH expression result in the assay with FSH (12 hours) is on record as “decreased FSH levels”. For the same compound, in the assay with mouse ovary, the ovary histology entry is given as “multiple layers of granulosa cells (GC) around the oocytes”; the “ovary histology (follicles, granulosa cells)” value was “more developed follicles (white arrow) and plurality of layers of granulosa cells (GC) around the oocytes”; the “ovary histology (corpus luteum)” value is given as “more corpus luteum (CL) than in the control group”. Further, the LH expression result in the assay with LH (6 hours post treatment) is “increased expression of LH above untreated levels”. Further, the “estrous cycle stage 12 hrs post treatment” value in the assay with female ICR mice (setting [1]) is reported as “No changes in the estrous cycle stage”. The “estrous cycle stage 12 hrs post treatment” value with female ICR mice (setting [2]) is recorded as “in the metestrus stage”.
